Data published in patent publication US8182844B2, “Use of Clerodendrum sp. for treating tic disorders or psychiatric disorders with sensorimotor gating deficits” (priority 2010, dated 2012).

The molecules below were run on methamphetamine-induced PPI disruption in mice (assay: Methamphetamine-induced disruption of prepulse inhibition of the startle response (PPI), dopamine hypothesis model). Conditions: diazepam, dose not given; methamphetamine 2 mg/kg; FIG. 2B.
Format: in vivo, mouse
Description: PPI is a neurophysiological phenomenon that the startle response to a stimulus, which could be a sound, an airpuff or a light, is inhibited if a stimulus with the same source but at weaker intensity prior to the stimulus was applied within a short interval. This is a fast neuroadaptative system to protect the living organisms from startle stimulation. It is believed to be a processing protection in a living organism that PPI serves as a sensorimotor gating, a pre-conscious regulator of attention, to reduce the startle response which is harmful to the information professing. […] PPI can be assessed by the motor response in either humans (measuring the eyeblink response by electromyograph) or animals (measuring the startle response).
Mice were i.p. injected by methamphetamine (2 mg/kg) to induce PPI disruption, as a schizophrenia model based on dopamine hypothesis. PPI was measured using the SR-LAB Startle Response System (San Diego Instrument, San Diego, Calif.). […] In the startle-alone trials, the basic auditory startle was measured, and in the prepulse-plus-startle trials, the amount of inhibition of normal startle induced by the prepulse was measured and expressed as a percentage of the basic startle. In the prepulse-alone trials, the normal response to a weak noise was measured as a control.

Q: How did the “rescue of methamphetamine-induced PPI disruption” value turn out when `CN1C(=O)CN=C(c2ccccc2)c2cc(Cl)ccc21` [diazepam] was run?
A: The value was “did not rescue”.

Same assay, conditions: methamphetamine 2 mg/kg i.p. alone, without extract; 71 db prepulse; control mice 55.6±3.5%

Q: How did the “PPI (inhibition of startle response to 115 db by prepulse)” value turn out when `CN[C@@H](C)Cc1ccccc1` [methamphetamine] was run?
A: The value was 42.4±4.1%.

These molecules were tested on chronic motor tic disorder (assay: Case report: effect on tics in a child with chronic motor tic disorder). Conditions: single patient, before taking the leaf extract.
Format: in vivo, human
Description: Withholding all medications for 1 day, they received examination of catecholamine metabolites in the cerebrospinal fluid.
Subsequently, this patient, started to take the extract of the grounded leaves of Clerodendrum inerme, which was prepared by mixing the leaves with water by a blender and collecting the juice after filtration as resulted. […] Honey was added because of the bitter taste. […] The follow-up IQ test had been arranged, but the patient was absent on the examination day.
This patient followed up regularly in NTUH pediatric outpatient clinic for their seizure problem.

Q: For `Cc1nc2n(c(=O)c1CCN1CCC(c3noc4cc(F)ccc34)CC1)CCCC2` [Risperidone], which “effect of earlier anti-tic medications on the involuntary movements of the patient” value (shortened to “effect of earlier anti-tic medications”) is on record?
A: The value was “in vain”.

Q: With `O=C(CCCN1CCC(O)(c2ccc(Cl)cc2)CC1)c1ccc(F)cc1` [haloperidol] as the molecule, how does the “effect of earlier anti-tic medications” value read?
A: The value was “in vain”.

Q: `CCN1CCCC1CNC(=O)c1cc(S(N)(=O)=O)ccc1OC` (stereo not drawn) [sulpiride] was tested. Which “effect of earlier anti-tic medications” value did it give?
A: The value was “without success”.

Q: biperidal was tested. Which “effect of earlier anti-tic medications” value did it give?
A: Its value is “without success”.

Q: Which “effect of earlier anti-tic medications” value does the source give for `CCCN1C[C@H](CSC)C[C@@H]2c3cccc4[nH]cc(c34)C[C@H]21` [pergolide] here?
A: Its value is “without success”.

Q: `CN1C(=O)CN=C(c2ccccc2)c2cc(Cl)ccc21` [diazepam] was tested. Which “effect of earlier anti-tic medications” value did it give?
A: The value was “in vain”.

Q: `Clc1cccc(Cl)c1N=C1NCCN1` [clonidine] was tested. Which “effect of earlier anti-tic medications” value did it give?
A: The value was “without success”.
